The record followed here is US8309552B2, “Immunomodulating heterocyclic compounds” (Medigene AG, priority 2003, dated 2012).

Some results are limits rather than exact numbers.

The target of this test is T1, CD80-CD28 interaction (Homo sapiens, UniProt P33681).
T1 sequence (P33681 35-242 limits assumed): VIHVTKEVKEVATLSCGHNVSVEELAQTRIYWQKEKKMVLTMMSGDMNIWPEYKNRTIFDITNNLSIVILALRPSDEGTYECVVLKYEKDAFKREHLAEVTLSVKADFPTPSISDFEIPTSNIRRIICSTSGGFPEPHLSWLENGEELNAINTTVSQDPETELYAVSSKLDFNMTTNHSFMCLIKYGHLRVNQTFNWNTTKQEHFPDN
Nature of the test: Homogenous Time Resolved Fluorescence (HTRF) assay, cell free. It counts as binding. The following applies: cell-free HTRF, compound concentration series 100 μM-1.7 nM, 4 hours at room temperature; read-out: Activity (EC50 in the HTRF assay). The method, then:
Homogenous Time Resolved Fluorescence Assay
The examples described above were tested in a cell free Homogenous Time Resolved Fluorescence (HTRF) assay to determine their activity as inhibitors of the CD80-CD28 interaction.
In the assay, europium and allophycocyanin (APC) are associated with CD28 and CD80 indirectly (through antibody linkers) to form a complex, which brings the europium and APC into close proximity to generate a signal. The complex comprises the following six proteins: fluorescent label 1, linker antibody 1, CD28 fusion protein, CD80 fusion protein, linker antibody 2, and fluorescent label 2. The table below describes these reagents in greater detail.
On formation of the complex, europium and APC are brought into proximity and a signal is generated.
Non-specific interaction was measured by substituting a mouse Fab fragment (C215) for the CD80 mouse Fab fragment fusion protein (1.9 μg/ml). The assay was carried out in black 384 well plates in a final volume of 30 μl. Assay buffer: 50 mM Tris-HCl, 150 mM NaCl pH7.8, containing 0.1% BSA (w/v) added just prior to use.
Compounds were added to the above reagents in a concentration series ranging between 100 μM-1.7 nM. The reaction was incubated for 4 hours at room temperature. Dual measurements were made using a Wallac Victor 1420 Multilabel Counter. First measurement: excitation 340 nm, emission 665 nm, delay 50 μs, window time 200 μs. second measurement: excitation 340 nm, emission 615 nm, delay 50 μs, window time 200 μs. Counts were automatically corrected for fluorescence crossover, quenching and background. The EC50 activities of compounds tested are recorded as: EC50:*=>10 μM,**=1-10 μM,***=<1 μM.
For orientation: TR-FRET usually uses a lanthanide donor and a delayed reading to cut background.
One may read the EC50 as the concentration that produces a half-maximal response. In the case of `CCCCN(CCCC)CCCNC(=O)c1ccc(-n2[nH]c3c(nnc4ccccc43)c2=O)cc1` [Example 58], the EC50 was less than 1000 nM.
In the case of `O=C(NC1CCCCCCCCCCC1)c1ccc(-n2[nH]c3c(nnc4ccccc43)c2=O)cc1` [Example 59], the EC50 is more than 10000 nM.
Consider `CCN(CC)CCNC(=O)c1ccc(-n2[nH]c3c(nnc4ccccc43)c2=O)cc1` [Example 60], for which the EC50 is less than 1000 nM.
As to `CN1CCCC1CCNC(=O)c1ccc(-n2[nH]c3c(nnc4ccccc43)c2=O)cc1` (centres unmarked) [Example 61], the EC50 is less than 1000 nM.
`CC1CCC(NC(=O)c2ccc(-n3[nH]c4c(nnc5ccccc54)c3=O)cc2)CC1` (centres unmarked) [Example 62]: the EC50 is 1000 to 10000 nM.
On to `O=C(NCCOc1ccccc1)c1ccc(-n2[nH]c3c(nnc4ccccc43)c2=O)cc1` [Example 63], for which the EC50 was 1000 to 10000 nM.
To `O=C(NCc1ccc(OC(F)(F)F)cc1)c1ccc(-n2[nH]c3c(nnc4ccccc43)c2=O)cc1` [Example 64] belongs 1000 to 10000 nM.
`O=C(NCCNc1cccc2ccccc12)c1ccc(-n2[nH]c3c(nnc4ccccc43)c2=O)cc1` [Example 65]: the EC50 is 1000 to 10000 nM.
With `CCOC(=O)C(C)NC(=O)c1ccc(-n2[nH]c3c(nnc4ccccc43)c2=O)cc1` (centres unmarked) [Example 66], the EC50 is 1000 to 10000 nM.
On to `CCCCOCCCNC(=O)c1ccc(-n2[nH]c3c(nnc4ccccc43)c2=O)cc1` [Example 67], for which the EC50 is less than 1000 nM.
For `CCN1CCCC1CNC(=O)c1ccc(-n2[nH]c3c(nnc4ccccc43)c2=O)cc1` (centres unmarked) [Example 69], the EC50 was less than 1000 nM.
As for `CC[C@@H](C)NC(=O)c1ccc(-n2[nH]c3c(nnc4ccccc43)c2=O)cc1` [Example 70], the EC50 was less than 1000 nM.
For the molecule `CC[C@H](C)NC(=O)c1ccc(-n2[nH]c3c(nnc4ccccc43)c2=O)cc1` [Example 71], the EC50 was less than 1000 nM.
As for `CCC(CC)NC(=O)c1ccc(-n2[nH]c3c(nnc4ccccc43)c2=O)cc1` [Example 72], the figure is 1000 to 10000 nM.
In the case of `O=C(NCCCCc1ccccc1)c1ccc(-n2[nH]c3c(nnc4ccccc43)c2=O)cc1` [Example 73], the concentration giving a half-maximal response (EC50) is 1000 to 10000 nM.
For `CCOC(=O)CCC(NC(=O)c1ccc(-n2[nH]c3c(nnc4ccccc43)c2=O)cc1)C(=O)OCC` (centres unmarked) [Example 74], the EC50 lay in the range of 1000 to 10000 nM.
To `CC(NC(=O)c1ccc(-n2[nH]c3c(nnc4ccccc43)c2=O)cc1)C1CCCCC1` (centres unmarked) [Example 75] belongs 1000 to 10000 nM; to `O=C(NCCc1ccccn1)c1ccc(-n2[nH]c3c(nnc4ccccc43)c2=O)cc1` [Example 76], 1000 to 10000 nM; to `CCSCCNC(=O)c1ccc(-n2[nH]c3c(nnc4ccccc43)c2=O)cc1` [Example 77], less than 1000 nM.
As for `O=C(NC1CC1)c1ccc(-n2[nH]c3c(nnc4ccccc43)c2=O)cc1` [Example 78], the figure is 1000 to 10000 nM; as for `O=C(NCCCN1CCCC1)c1ccc(-n2[nH]c3c(nnc4ccccc43)c2=O)cc1` [Example 79], less than 1000 nM.
As to `O=C(NC1CCCN(Cc2ccccc2)C1)c1ccc(-n2[nH]c3c(nnc4ccccc43)c2=O)cc1` (centres unmarked) [Example 80], the EC50 is less than 1000 nM.
For `CCN(CC)CCCC(C)NC(=O)c1ccc(-n2[nH]c3c(nnc4ccccc43)c2=O)cc1` (centres unmarked) [Example 81], the concentration for a half-maximal effect (EC50) was less than 1000 nM.
As for `CC(C)CCNC(=O)c1ccc(-n2[nH]c3c(nnc4ccccc43)c2=O)cc1` [Example 82], the figure is 1000 to 10000 nM; as for `O=C(NC1CCCC1)c1ccc(-n2[nH]c3c(nnc4ccccc43)c2=O)cc1` [Example 83], 1000 to 10000 nM.
In the case of `CCCNC(=O)c1ccc(-n2[nH]c3c(nnc4ccccc43)c2=O)cc1` [Example 84], the EC50 was in the range of 1000 to 10000 nM.
As for `CC(C)(C)CCNC(=O)c1ccc(-n2[nH]c3c(nnc4ccccc43)c2=O)cc1` [Example 85], the EC50 lay within 1000 to 10000 nM.
For the molecule `O=C(NC1CCN(Cc2ccccc2)CC1)c1ccc(-n2[nH]c3c(nnc4ccccc43)c2=O)cc1` [Example 86], the concentration giving a half-maximal response (EC50) is less than 1000 nM.
To `O=C(NCC1CCCCCC1)c1ccc(-n2[nH]c3c(nnc4ccccc43)c2=O)cc1` [Example 87] belongs more than 10000 nM.
Regarding `CC(NC(=O)c1ccc(-n2[nH]c3c(nnc4ccccc43)c2=O)cc1)C(C)(C)C` (centres unmarked) [Example 88], the EC50 was in the range of 1000 to 10000 nM.
As for `CC(C)C(C)NC(=O)c1ccc(-n2[nH]c3c(nnc4ccccc43)c2=O)cc1` (centres unmarked) [Example 89], the EC50 is less than 1000 nM.
Take `O=C(NC1CCCC1OCc1ccccc1)c1ccc(-n2[nH]c3c(nnc4ccccc43)c2=O)cc1` (centres unmarked) [Example 90]: the concentration for a half-maximal effect (EC50) is 1000 to 10000 nM.
For the molecule `CC(C)(C)OC(=O)NCCCCNC(=O)c1ccc(-n2[nH]c3c(nnc4ccccc43)c2=O)cc1` [Example 91], the half-maximal effective concentration (EC50) was less than 1000 nM.
As for `CCCCCCCC(C)NC(=O)c1ccc(-n2[nH]c3c(nnc4ccccc43)c2=O)cc1` (centres unmarked) [Example 92], the EC50 was more than 10000 nM.
`COC(=O)C(NC(=O)c1ccc(-n2[nH]c3c(nnc4ccccc43)c2=O)cc1)C(C)C` (centres unmarked) [Example 93]: the EC50 was in the range of 1000 to 10000 nM.
With `O=C(NC1CCN(Cc2ccccc2)C1)c1ccc(-n2[nH]c3c(nnc4ccccc43)c2=O)cc1` (centres unmarked) [Example 94], the EC50 is less than 1000 nM.
For `O=C(NCCc1cccnc1)c1ccc(-n2[nH]c3c(nnc4ccccc43)c2=O)cc1` [Example 95], the EC50 is less than 1000 nM.
For the molecule `CC(C)CCC(C)NC(=O)c1ccc(-n2[nH]c3c(nnc4ccccc43)c2=O)cc1` (centres unmarked) [Example 96], the EC50 fell in the range of 1000 to 10000 nM.
As for `CN(CCNC(=O)c1ccc(-n2[nH]c3c(nnc4ccccc43)c2=O)cc1)C(=O)OC(C)(C)C` [Example 97], the EC50 was in the range of 1000 to 10000 nM.
With `O=C(Nc1ccc(N2CCCCC2)cc1)c1ccc(-n2[nH]c3c(nnc4ccccc43)c2=O)cc1` [Example 98], the EC50 lay in the range of 1000 to 10000 nM.
To `CC(CCCC(C)(C)O)NC(=O)c1ccc(-n2[nH]c3c(nnc4ccccc43)c2=O)cc1` (centres unmarked) [Example 99] belongs 1000 to 10000 nM; to `CC(C)(C)OC(=O)N1CCN(CCNC(=O)c2ccc(-n3[nH]c4c(nnc5ccccc54)c3=O)cc2)CC1` [Example 101], less than 1000 nM; to `O=C(NCCN1CCNCC1)c1ccc(-n2[nH]c3c(nnc4ccccc43)c2=O)cc1` [Example 102], 1000 to 10000 nM.
Consider `CC1(C)CC(NC(=O)c2ccc(-n3[nH]c4c(nnc5ccccc54)c3=O)cc2)CC(C)(C)N1` [Example 103], for which the EC50 is less than 1000 nM.
As to `CCOC(=O)N1CCC(NC(=O)c2ccc(-n3[nH]c4c(nnc5ccccc54)c3=O)cc2)CC1` [Example 104], the EC50 lay within 1000 to 10000 nM.
Turning to `CC(CCc1ccccc1)NC(=O)c1ccc(-n2[nH]c3c(nnc4ccccc43)c2=O)cc1` (centres unmarked) [Example 105], the EC50 was more than 10000 nM.
As to `COC(CNC(=O)c1ccc(-n2[nH]c3c(nnc4ccccc43)c2=O)cc1)OC` [Example 106], the EC50 was in the range of 1000 to 10000 nM.
`CCC(C)CNC(=O)c1ccc(-n2[nH]c3c(nnc4ccccc43)c2=O)cc1` (centres unmarked) [Example 107]: the EC50 was in the range of 1000 to 10000 nM.
For the molecule `CC(C)NCCNC(=O)c1ccc(-n2[nH]c3c(nnc4ccccc43)c2=O)cc1` [Example 108], the EC50 was less than 1000 nM.
As to `O=C(NCCNCCO)c1ccc(-n2[nH]c3c(nnc4ccccc43)c2=O)cc1` [Example 109], the EC50 was less than 1000 nM.
For the molecule `CC(C)NCCCNC(=O)c1ccc(-n2[nH]c3c(nnc4ccccc43)c2=O)cc1` [Example 110], the EC50 was less than 1000 nM.
As for `O=C(NCCCO)c1ccc(-n2[nH]c3c(nnc4ccccc43)c2=O)cc1` [Example 111], the concentration giving a half-maximal response (EC50) was 1000 to 10000 nM.
Turning to `O=C(NCCCCCO)c1ccc(-n2[nH]c3c(nnc4ccccc43)c2=O)cc1` [Example 112], the EC50 was less than 1000 nM.
`CCCCCCNC(=O)c1ccc(-n2[nH]c3c(nnc4ccccc43)c2=O)cc1` [Example 113]: the EC50 was 1000 to 10000 nM.
Turning to `NS(=O)(=O)c1ccc(CCNC(=O)c2ccc(-n3[nH]c4c(nnc5ccccc54)c3=O)cc2)cc1` [Example 114], the 50% effective concentration (EC50) fell in the range of 1000 to 10000 nM.
With `COC(=O)CNC(=O)c1ccc(-n2[nH]c3c(nnc4ccccc43)c2=O)cc1` [Example 115], the EC50 was 1000 to 10000 nM.
With `CCOC(=O)CCNC(=O)c1ccc(-n2[nH]c3c(nnc4ccccc43)c2=O)cc1` [Example 116], the EC50 is more than 10000 nM.
Consider `CC(C)(C)OC(=O)NCCCCCCNC(=O)c1ccc(-n2[nH]c3c(nnc4ccccc43)c2=O)cc1` [Example 117], for which the 50% effective concentration (EC50) lay in the range of 1000 to 10000 nM.
`CCOC(=O)C(C)NC(=O)c1ccc(-n2[nH]c3c(nnc4ccccc43)c2=O)cc1` (centres unmarked) [Example 118]: the EC50 was 1000 to 10000 nM.
`COCC(C)NC(=O)c1ccc(-n2[nH]c3c(nnc4ccccc43)c2=O)cc1` (centres unmarked) [Example 119]: the concentration giving a half-maximal response (EC50) lay in the range of 1000 to 10000 nM.
`CC(NC(=O)c1ccc(-n2[nH]c3c(nnc4ccccc43)c2=O)cc1)C1CCCCC1` (centres unmarked) [Example 120]: the EC50 was in the range of 1000 to 10000 nM.
Regarding `CC1C(NC(=O)c2ccc(-n3[nH]c4c(nnc5ccccc54)c3=O)cc2)CC2CC1C2(C)C` (centres unmarked) [Example 121], the EC50 fell in the range of 1000 to 10000 nM.
